Assay results: ChEMBL document CHEMBL3885861, “Open TG-GATES”

Species: Rattus norvegicus
Experiment: Open TG-GATES - Regimen: Daily Repeat
Assay type: toxicity, organism-based, Sprague-Dawley
Set-up: regimen Daily Repeat, gender Male, age 6 weeks
Details: in vivo, po, 15 mg/kg, route gavage, dose level Low; for APTT / Bas / Eos / Fbg / Hb / Ht / Lym / MCH / MCHC / MCV / Mono / Neu / PT / Plat / RBC / Ret / WBC: tissue Blood; for KIDNEY_L / KIDNEY_R / KIDNEY_TOTAL: tissue Kidney; for LIVER: tissue Liver; for A/G / ALP / ALT / AST / BUN / CRE / Ca / Cl / DBIL / GLC / IP / K / LDH / Na / PL / RALB / TBIL / TC / TG / TP / gamma-GTP: tissue Plasma

Work on `O=c1ccc2ccccc2o1` [COUMARIN] yielded a TERMINAL_BW (72 h, time 3 day) of 198.3 g, an APTT (72 h, time 3 day) of 15.1 s and a Bas (72 h, time 3 day) of 0%. For the same molecule, the Eos (72 h, time 3 day) was 1%, the Fbg (72 h, time 3 day) was 192.4 mg/dL and the Hb (72 h, time 3 day) was 13.1 g/dL. It also gave a Ht (72 h, time 3 day) of 39.5%, a Lym (72 h, time 3 day) of 72.2% and an MCH (72 h, time 3 day) of 21.5 pg. It also gave an MCHC (72 h, time 3 day) of 33.2%, an MCV (72 h, time 3 day) of 64.8 fL and a Mono (72 h, time 3 day) of 9.8%. For the same molecule, the Neu (72 h, time 3 day) was 17%, the PT (72 h, time 3 day) was 11.6 s and the Plat (72 h, time 3 day) was 110.7 x10_4/uL. For the same molecule, the RBC (72 h, time 3 day) was 608.6 x10_4/ul, the Ret (72 h, time 3 day) was 7.9% and the WBC (72 h, time 3 day) was 108.8 x10_2/uL. It also gave a KIDNEY_L (72 h, time 3 day) of 0.9 g, a KIDNEY_R (72 h, time 3 day) of 0.9 g and a KIDNEY_TOTAL (72 h, time 3 day) of 1.8 g. It also gave an LIVER (72 h, time 3 day) of 10.1 g, an A/G (72 h, time 3 day) of 2.1 and an ALP (72 h, time 3 day) of 921.6 IU/L. For the same molecule, the ALT (72 h, time 3 day) was 40.6 IU/L, the AST (72 h, time 3 day) was 68 IU/L and the BUN (72 h, time 3 day) was 14.8 mg/dL. For the same molecule, the CRE (72 h, time 3 day) was 0.5 mg/dL, the Ca (72 h, time 3 day) was 10.8 mg/dL and the Cl (72 h, time 3 day) was 104.6 meq/L. For the same molecule, the DBIL (72 h, time 3 day) was 0.02 mg/dL, the GLC (72 h, time 3 day) was 190 mg/dL and the IP (72 h, time 3 day) was 8.3 mg/dL. It also gave a K (72 h, time 3 day) of 4.9 meq/L, an LDH (72 h, time 3 day) of 78.2 IU/L and a Na (72 h, time 3 day) of 138.8 meq/L. For the same molecule, the PL (72 h, time 3 day) was 150 mg/dL, the RALB (72 h, time 3 day) was 3.7 g/dL and the TBIL (72 h, time 3 day) was 0.3 mg/dL. It also gave a TC (72 h, time 3 day) of 89.2 mg/dL, a TG (72 h, time 3 day) of 68 mg/dL and a TP (72 h, time 3 day) of 5.5 g/dL. For the same molecule, the gamma-GTP (72 h, time 3 day) was 1.6 IU/L, the TERMINAL_BW ([…], time 7 day) was 228.4 g and the TERMINAL_BW ([…], time 14 day) was 282.9 g. For the same molecule, the TERMINAL_BW ([…], time 28 day) was 347.7 g, the APTT ([…], time 7 day) was 16 s and the Bas ([…], time 7 day) was 0%. The Eos ([…], time 7 day) was 1%, the Fbg ([…], time 7 day) was 223.8 mg/dL and the Hb ([…], time 7 day) was 13.9 g/dL. It also gave a Ht ([…], time 7 day) of 42%, a Lym ([…], time 7 day) of 81.6% and an MCH ([…], time 7 day) of 21.3 pg. The MCHC ([…], time 7 day) was 33%, the MCV ([…], time 7 day) was 64.4 fL and the Mono ([…], time 7 day) was 5.2%. The Neu ([…], time 7 day) was 12.4%, the PT ([…], time 7 day) was 11.5 s and the Plat ([…], time 7 day) was 119 x10_4/uL. The RBC ([…], time 7 day) was 653.2 x10_4/ul, the Ret ([…], time 7 day) was 6.1% and the WBC ([…], time 7 day) was 129.6 x10_2/uL. The APTT ([…], time 14 day) was 17.1 s, the Bas ([…], time 14 day) was 0% and the Eos ([…], time 14 day) was 0.6%. For the same molecule, the Fbg ([…], time 14 day) was 225.6 mg/dL, the Hb ([…], time 14 day) was 13.9 g/dL and the Ht ([…], time 14 day) was 41.8%. It also gave a Lym ([…], time 14 day) of 82.6%, an MCH ([…], time 14 day) of 20.4 pg and an MCHC ([…], time 14 day) of 33.3%. It also gave an MCV ([…], time 14 day) of 61.2 fL, a Mono ([…], time 14 day) of 4.8% and a Neu ([…], time 14 day) of 12%. The PT ([…], time 14 day) was 11.4 s, the Plat ([…], time 14 day) was 118.1 x10_4/uL and the RBC ([…], time 14 day) was 683 x10_4/ul. The Ret ([…], time 14 day) was 4.8%, the WBC ([…], time 14 day) was 144.2 x10_2/uL and the APTT ([…], time 28 day) was 18.3 s. For the same molecule, the Bas ([…], time 28 day) was 0%, the Eos ([…], time 28 day) was 1.2% and the Fbg ([…], time 28 day) was 217.2 mg/dL. It also gave a Hb ([…], time 28 day) of 14.8 g/dL, a Ht ([…], time 28 day) of 44% and a Lym ([…], time 28 day) of 80%. The MCH ([…], time 28 day) was 19.9 pg, the MCHC ([…], time 28 day) was 33.5% and the MCV ([…], time 28 day) was 59.3 fL. For the same molecule, the Mono ([…], time 28 day) was 8%, the Neu ([…], time 28 day) was 11% and the PT ([…], time 28 day) was 11.8 s. It also gave a Plat ([…], time 28 day) of 108.5 x10_4/uL, an RBC ([…], time 28 day) of 743.6 x10_4/ul and a Ret ([…], time 28 day) of 3%. It also gave a WBC ([…], time 28 day) of 134.3 x10_2/uL, a KIDNEY_L ([…], time 7 day) of 1 g and a KIDNEY_R ([…], time 7 day) of 1 g. It also gave a KIDNEY_TOTAL ([…], time 7 day) of 2 g, a KIDNEY_L ([…], time 14 day) of 1.1 g and a KIDNEY_R ([…], time 14 day) of 1.1 g. The KIDNEY_TOTAL ([…], time 14 day) was 2.3 g, the KIDNEY_L ([…], time 28 day) was 1.3 g and the KIDNEY_R ([…], time 28 day) was 1.3 g. For the same molecule, the KIDNEY_TOTAL ([…], time 28 day) was 2.6 g, the LIVER ([…], time 7 day) was 11.6 g and the LIVER ([…], time 14 day) was 14.2 g. For the same molecule, the LIVER ([…], time 28 day) was 16.4 g, the A/G ([…], time 7 day) was 2.1 and the ALP ([…], time 7 day) was 1042 IU/L. For the same molecule, the ALT ([…], time 7 day) was 34.2 IU/L, the AST ([…], time 7 day) was 53.8 IU/L and the BUN ([…], time 7 day) was 16 mg/dL. The CRE ([…], time 7 day) was 0.5 mg/dL, the Ca ([…], time 7 day) was 10.9 mg/dL and the Cl ([…], time 7 day) was 104.8 meq/L. For the same molecule, the DBIL ([…], time 7 day) was 0.022 mg/dL, the GLC ([…], time 7 day) was 192 mg/dL and the IP ([…], time 7 day) was 7.4 mg/dL. For the same molecule, the K ([…], time 7 day) was 5 meq/L, the LDH ([…], time 7 day) was 85.4 IU/L and the Na ([…], time 7 day) was 138.4 meq/L. The PL ([…], time 7 day) was 178.6 mg/dL, the RALB ([…], time 7 day) was 4 g/dL and the TBIL ([…], time 7 day) was 0.3 mg/dL. The TC ([…], time 7 day) was 97.6 mg/dL, the TG ([…], time 7 day) was 96 mg/dL and the TP ([…], time 7 day) was 6 g/dL. The gamma-GTP ([…], time 7 day) was 2 IU/L, the A/G ([…], time 14 day) was 1.9 and the ALP ([…], time 14 day) was 761.8 IU/L. For the same molecule, the ALT ([…], time 14 day) was 40 IU/L, the AST ([…], time 14 day) was 59 IU/L and the BUN ([…], time 14 day) was 18.2 mg/dL. For the same molecule, the CRE ([…], time 14 day) was 0.5 mg/dL, the Ca ([…], time 14 day) was 10.9 mg/dL and the Cl ([…], time 14 day) was 106 meq/L. For the same molecule, the DBIL ([…], time 14 day) was 0.042 mg/dL, the GLC ([…], time 14 day) was 194.6 mg/dL and the IP ([…], time 14 day) was 6.6 mg/dL. The K ([…], time 14 day) was 5.1 meq/L, the LDH ([…], time 14 day) was 87 IU/L and the Na ([…], time 14 day) was 138.2 meq/L. The PL ([…], time 14 day) was 171.2 mg/dL, the RALB ([…], time 14 day) was 4 g/dL and the TBIL ([…], time 14 day) was 0.3 mg/dL. It also gave a TC ([…], time 14 day) of 84.4 mg/dL, a TG ([…], time 14 day) of 116.8 mg/dL and a TP ([…], time 14 day) of 6.1 g/dL. For the same molecule, the gamma-GTP ([…], time 14 day) was 1.2 IU/L, the A/G ([…], time 28 day) was 1.7 and the ALP ([…], time 28 day) was 681.4 IU/L. The ALT ([…], time 28 day) was 33.2 IU/L, the AST ([…], time 28 day) was 52.4 IU/L and the BUN ([…], time 28 day) was 19.6 mg/dL. It also gave a CRE ([…], time 28 day) of 0.6 mg/dL, a Ca ([…], time 28 day) of 10.8 mg/dL and a Cl ([…], time 28 day) of 107.4 meq/L. For the same molecule, the DBIL ([…], time 28 day) was 0.012 mg/dL, the GLC ([…], time 28 day) was 187.6 mg/dL and the IP ([…], time 28 day) was 6.7 mg/dL. The K ([…], time 28 day) was 4.3 meq/L, the LDH ([…], time 28 day) was 46.4 IU/L and the Na ([…], time 28 day) was 139.4 meq/L. The PL ([…], time 28 day) was 145.6 mg/dL, the RALB ([…], time 28 day) was 4.2 g/dL and the TBIL ([…], time 28 day) was 0.4 mg/dL. For the same molecule, the TC ([…], time 28 day) was 70.8 mg/dL, the TG ([…], time 28 day) was 123.8 mg/dL and the TP ([…], time 28 day) was 6.6 g/dL. It also gave a gamma-GTP ([…], time 28 day) of 1 IU/L.
